In ChEMBL document CHEMBL2440076, “New triarylpyrazoles as broad-spectrum anticancer agents: design, synthesis, and biological evaluation” (Eur J Med Chem, 2013):

Assays:
MDA-MB-468 = assay: Growth inhibition of human MDA-MB-468 cells after 48 hrs by sulforhodamine B assay; format: functional, cell-based; details: MDA-MB-468, 48 h; for CC50: read-out: LC50 (the source's name)
SF-295 = assay: Growth inhibition of human SF295 cells after 48 hrs by sulforhodamine B assay; format: functional, cell-based; details: SF-295, 48 h
T47D [1] = assay: Growth inhibition of human T47D cells after 48 hrs by sulforhodamine B assay; format: functional; details: for CC50: read-out: LC50 (the source's name)
IGROV-1 = assay: Growth inhibition of human IGROV1 cells after 48 hrs by sulforhodamine B assay; format: functional; details: IGROV-1, 48 h
UACC-62 = assay: Growth inhibition of human UACC62 cells assessed as cell growth at 10 uM after 48 hrs by sulforhodamine B assay; format: functional; details: UACC-62, 48 h, read-out: Activity
T47D [2] = assay: Growth inhibition of human T47D cells assessed as cell growth at 10 uM after 48 hrs by sulforhodamine B assay; format: functional; details: read-out: Activity
MDA-MB-435 [3] = assay: Growth inhibition of human MDA-MB-435 cells after 48 hrs by sulforhodamine B assay; format: functional, cell-based; details: MDA-MB-435, 48 h; for CC50: read-out: LC50 (the source's name)
LOX IMVI = assay: Growth inhibition of human LOXIMVI cells after 48 hrs by sulforhodamine B assay; format: functional
RPMI-8226 = assay: Growth inhibition of human RPMI8226 cells after 48 hrs by sulforhodamine B assay; format: functional, cell-based; details: RPMI-8226, 48 h; for CC50: read-out: LC50 (the source's name)
MDA-MB-231 [4] = assay: Growth inhibition of human MDA-MB-231 cells assessed as cell growth at 10 uM after 48 hrs by sulforhodamine B assay; format: functional; details: MDA-MB-231, 48 h, read-out: Activity
SK-MEL-28 = assay: Growth inhibition of human SK-MEL-28 cells after 48 hrs by sulforhodamine B assay; format: functional; details: SK-MEL-28, 48 h
COLO 205 = assay: Growth inhibition of human COLO205 cells after 48 hrs by sulforhodamine B assay; format: functional; details: COLO 205, 48 h
ACHN = assay: Growth inhibition of human ACHN cells assessed as cell growth at 10 uM after 48 hrs by sulforhodamine B assay; format: functional; details: read-out: Activity
MDA-MB-435 [5] = assay: Growth inhibition of human MDA-MB-435 cells assessed as cell growth at 10 uM after 48 hrs by sulforhodamine B assay; format: functional; details: MDA-MB-435, 48 h, read-out: Activity
K562 [6] = assay: Growth inhibition of human K562 cells assessed as cell growth at 10 uM after 48 hrs by sulforhodamine B assay; format: functional; details: K562, 48 h, read-out: Activity
786-0 [7] = assay: Growth inhibition of human 786-0 cells after 48 hrs by sulforhodamine B assay; format: functional; details: 786-0, 48 h; for CC50: read-out: LC50 (the source's name)
[8] = Growth inhibition of human Hs 578T cells assessed as cell growth at 10 uM after 48 hrs by sulforhodamine B assay; format: functional; details: read-out: Activity
HCT-15 = assay: Growth inhibition of human HCT15 cells after 48 hrs by sulforhodamine B assay; format: functional; details: HCT-15, 48 h
K562 [9] = assay: Growth inhibition of human K562 cells after 48 hrs by sulforhodamine B assay; format: functional; details: K562, 48 h; for CC50: read-out: LC50 (the source's name)
SK-OV-3 = assay: Growth inhibition of human SKOV3 cells assessed as cell growth at 10 uM after 48 hrs by sulforhodamine B assay; format: functional; details: SK-OV-3, 48 h, read-out: Activity
UO-31 [10] = assay: Growth inhibition of human UO31 cells after 48 hrs by sulforhodamine B assay; format: functional; details: UO-31, 48 h; for CC50: read-out: LC50 (the source's name)
OVCAR-8 = assay: Growth inhibition of human OVCAR8 cells assessed as cell growth at 10 uM after 48 hrs by sulforhodamine B assay; format: functional; details: OVCAR-8, 48 h, read-out: Activity
M14 = assay: Growth inhibition of human M14 cells assessed as cell growth at 10 uM after 48 hrs by sulforhodamine B assay; format: functional; details: M14, 48 h, read-out: Activity
OVCAR-4 = assay: Growth inhibition of human OVCAR4 cells assessed as cell growth at 10 uM after 48 hrs by sulforhodamine B assay; format: functional; details: OVCAR-4, 48 h, read-out: Activity
HOP-62 = assay: Growth inhibition of human HOP62 cells after 48 hrs by sulforhodamine B assay; format: functional; details: HOP-62, 48 h; for CC50: read-out: LC50 (the source's name)
DU-145 = assay: Growth inhibition of human DU145 cells assessed as cell growth at 10 uM after 48 hrs by sulforhodamine B assay; format: functional; details: DU-145, 48 h, read-out: Activity
SNB-19 = assay: Growth inhibition of human SNB19 cells assessed as cell growth at 10 uM after 48 hrs by sulforhodamine B assay; format: functional; details: SNB-19, 48 h, read-out: Activity
HL-60(TB) = assay: Growth inhibition of human HL-60(TB) cells after 48 hrs by sulforhodamine B assay; format: functional; details: HL-60, 48 h; for CC50: read-out: LC50 (the source's name)
MDA-MB-231 [11] = assay: Growth inhibition of human MDA-MB-231 cells after 48 hrs by sulforhodamine B assay; format: functional; details: MDA-MB-231, 48 h
UO-31 [12] = assay: Growth inhibition of human UO31 cells assessed as cell growth at 10 uM after 48 hrs by sulforhodamine B assay; format: functional; details: UO-31, 48 h, read-out: Activity
A498 = assay: Growth inhibition of human A498 cells assessed as cell growth at 10 uM after 48 hrs by sulforhodamine B assay; format: functional; details: A498, 48 h, read-out: Activity
[13] = Growth inhibition of human HCC2998 cells after 48 hrs by sulforhodamine B assay; format: functional; details: HCC 2998, 48 h; for CC50: read-out: LC50 (the source's name)
NCI-H322M = assay: Growth inhibition of human NCI-H322M cells assessed as cell growth at 10 uM after 48 hrs by sulforhodamine B assay; format: functional; details: read-out: Activity
786-0 [14] = assay: Growth inhibition of human 786-0 cells assessed as cell growth at 10 uM after 48 hrs by sulforhodamine B assay; format: functional; details: 786-0, 48 h, read-out: Activity

## COc1cc(-c2nn(-c3cccc(NC(=O)c4ccc(N5CCOCC5)c(C(F)(F)F)c4)c3)cc2-c2ccncc2)ccc1Cl
MDA-MB-468
  GI50: 183 nM
  IC50: 180 nM
  TGI: 781 nM
  CC50: 5530 nM
SF-295
  GI50: 150 nM
  IC50: 150 nM
  TGI: 1150 nM
SF-295; read-out: LC50 (the source's name)
  CC50: 6310 nM
T47D [1]
  GI50: 686 nM
  TGI: > 100000 nM
  CC50: > 100000 nM
IGROV-1
  GI50: 437 nM
  LC50 (concentration killing 50% of cells): > 100000 nM
  TGI: 6790 nM
UACC-62
  growth at 10 µM: 8.35%
T47D [2]
  growth at 10 µM: 27.5%
MDA-MB-435 [3]
  GI50: 26.6 nM
  IC50: 27 nM
  TGI: 91.4 nM
  CC50: > 100000 nM
LOX IMVI
  GI50: 371 nM
  LC50: > 100000 nM
  TGI: 6200 nM
RPMI-8226
  GI50: 339 nM
  IC50: 340 nM
  TGI: > 100000 nM
  CC50: > 100000 nM
MDA-MB-231 [4]
  growth at 10 µM: -25.2%
SK-MEL-28
  GI50: 1390 nM
  LC50: > 100000 nM
  TGI: > 100000 nM
COLO 205
  GI50: 342 nM
  LC50 (concentration killing 50% of cells): 4150 nM
  TGI: 1150 nM
ACHN
  growth at 10 µM: 21.3%
MDA-MB-435 [5]
  growth at 10 µM: -35.1%
K562 [6]
  growth at 10 µM: 1.22%
786-0 [7]
  GI50: 819 nM
  CC50: > 100000 nM
[8]
  growth at 10 µM: -13.6%
HCT-15
  GI50: 247 nM
  LC50: > 100000 nM
  TGI: > 100000 nM
K562 [9]
  GI50: 49.9 nM
  TGI: > 100000 nM
  CC50: > 100000 nM
SK-OV-3
  growth at 10 µM: 1.88%
UO-31 [10]
  GI50: 289 nM
  TGI: 7530 nM
  CC50: > 100000 nM
OVCAR-8
  growth at 10 µM: 5.23%
M14
  growth at 10 µM: 1.42%
OVCAR-4
  growth at 10 µM: 52.6%
HOP-62
  GI50: 583 nM
  TGI: > 100000 nM
  CC50: > 100000 nM
DU-145
  growth at 10 µM: 10.9%
SNB-19
  growth at 10 µM: 45.1%
HL-60(TB)
  GI50: 298 nM
  TGI: > 100000 nM
  CC50: > 100000 nM
MDA-MB-231 [11]
  GI50: 299 nM
  LC50: > 100000 nM
  TGI: 2390 nM
UO-31 [12]
  growth at 10 µM: 24.6%
A498
  growth at 10 µM: -29.7%
[13]
  GI50: 1070 nM
  TGI: 5020 nM
  CC50: > 100000 nM
NCI-H322M
  growth at 10 µM: 54.2%
786-0 [14]
  growth at 10 µM: -3.26%

## O=C(Nc1cccc(-n2cc(-c3ccncc3)c(-c3ccc(Cl)c(O)c3)n2)c1)Nc1ccc(Cl)c(Cl)c1
MDA-MB-468
  GI50: 729 nM
  IC50: 730 nM
  TGI: 4250 nM
  CC50: > 32500 nM
T47D [1]
  GI50: 1550 nM
  TGI: 17900 nM
  CC50: > 32500 nM
IGROV-1
  GI50: 1770 nM
  LC50 (concentration killing 50% of cells): > 32500 nM
  TGI: > 32500 nM
UACC-62
  growth at 10 µM: 14.9%
T47D [2]
  growth at 10 µM: 23%
MDA-MB-435 [3]
  GI50: 1100 nM
  IC50: 1100 nM
  TGI: 6050 nM
  CC50: > 32500 nM
LOX IMVI
  GI50: 939 nM
  LC50: 15000 nM
  TGI: 3570 nM
RPMI-8226
  GI50: 1030 nM
  IC50: 1030 nM
  TGI: > 32500 nM
  CC50: > 32500 nM
MDA-MB-231 [4]
  growth at 10 µM: -0.72%
SK-MEL-28
  GI50: 1460 nM
  LC50: > 32500 nM
  TGI: 9850 nM
COLO 205
  GI50: 3960 nM
  LC50 (concentration killing 50% of cells): 22700 nM
  TGI: 9490 nM
ACHN
  growth at 10 µM: 12.8%
MDA-MB-435 [5]
  growth at 10 µM: 9.98%
K562 [6]
  growth at 10 µM: 11.4%
786-0 [7]
  GI50: 7220 nM
  TGI: > 32500 nM
  CC50: > 32500 nM
[8]
  growth at 10 µM: 36.1%
HCT-15
  GI50: 1230 nM
  LC50: > 32500 nM
  TGI: 29600 nM
K562 [9]
  GI50: 1410 nM
  TGI: > 32500 nM
  CC50: > 32500 nM
SK-OV-3
  growth at 10 µM: 18.7%
UO-31 [10]
  GI50: 1250 nM
  TGI: > 32500 nM
  CC50: > 32500 nM
OVCAR-8
  growth at 10 µM: 11.7%
M14
  growth at 10 µM: 17.2%
OVCAR-4
  growth at 10 µM: 29.4%
HOP-62
  GI50: 2080 nM
  TGI: 17600 nM
  CC50: > 32500 nM
DU-145
  growth at 10 µM: 25.9%
SNB-19
  growth at 10 µM: 30.3%
HL-60(TB)
  GI50: 515 nM
  TGI: > 32500 nM
  CC50: > 32500 nM
MDA-MB-231 [11]
  GI50: 1180 nM
  LC50: > 32500 nM
  TGI: 8330 nM
UO-31 [12]
  growth at 10 µM: 21%
A498
  growth at 10 µM: 31.1%
[13]
  GI50: 2890 nM
  TGI: 13900 nM
  CC50: > 32500 nM
NCI-H322M
  growth at 10 µM: 40.6%
786-0 [14]
  growth at 10 µM: 30.1%
